Experimental data taken from patent US20240158446A1, “CYCLIC COMPOUND HAVING SELECTIVE INHIBITORY ACTION ON KRAS OVER HRAS AND NRAS” (CHUGAI SEIYAKU KABUSHIKI KAISHA, priority 2021, published 2024).
pIC50, pKd: −log10 of the molar value.

Tests used:
[1] = molecular target: GDP-bound KRAS wild-type protein (Homo sapiens, UniProt P01116); assay: Binding to KRAS by surface plasmon resonance (SPR), Single Cycle Kinetics; conditions: SPR, Single Cycle Kinetics, 1:1 binding model; GDP-bound KRAS wild-type protein; read-out: KRAS KD
GDP-bound KRAS wild-type protein, sequence (P01116 whole entry): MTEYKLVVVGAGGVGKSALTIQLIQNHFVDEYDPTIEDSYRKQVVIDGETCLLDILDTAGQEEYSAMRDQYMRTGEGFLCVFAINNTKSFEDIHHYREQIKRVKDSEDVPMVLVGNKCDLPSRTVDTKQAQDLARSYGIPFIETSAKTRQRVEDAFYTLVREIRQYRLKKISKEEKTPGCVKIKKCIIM

[2] = molecular target: GDP-bound NRAS wild-type protein (Homo sapiens, UniProt P01111); assay: Binding to NRAS by surface plasmon resonance (SPR), Single Cycle Kinetics; conditions: SPR; GDP-bound NRAS wild-type protein vs GDP-bound KRAS wild-type protein; KD ratio class
GDP-bound NRAS wild-type protein, sequence (P01111 whole entry): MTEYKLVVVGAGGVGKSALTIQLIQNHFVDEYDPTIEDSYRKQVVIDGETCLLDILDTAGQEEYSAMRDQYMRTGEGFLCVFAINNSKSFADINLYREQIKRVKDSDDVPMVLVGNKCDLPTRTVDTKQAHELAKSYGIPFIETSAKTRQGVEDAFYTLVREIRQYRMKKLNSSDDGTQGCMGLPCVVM

[3] = molecular target: GDP-bound HRAS wild-type protein (Homo sapiens, UniProt P01112); assay: Binding to HRAS by surface plasmon resonance (SPR), Single Cycle Kinetics; conditions: SPR; GDP-bound HRAS wild-type protein vs GDP-bound KRAS wild-type protein; KD ratio class
GDP-bound HRAS wild-type protein, sequence (P01112 whole entry): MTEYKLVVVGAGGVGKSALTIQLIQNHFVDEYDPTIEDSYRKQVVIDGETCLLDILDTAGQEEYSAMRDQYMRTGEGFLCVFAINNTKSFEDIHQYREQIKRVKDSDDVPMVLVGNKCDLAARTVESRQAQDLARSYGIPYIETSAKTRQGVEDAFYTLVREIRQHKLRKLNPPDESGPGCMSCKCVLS

[4] = test system: human lung cancer strain NCI-H441;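 note: cell proliferation inhibition after four days measured by CellTiter-Glo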

| Structure (SMILES) | pKd [1] | NRAS/KRAS (ratio of KD value for NRAS to KD value for KRAS) [2] | HRAS/KRAS (ratio of KD value for HRAS to KD value for KRAS) [3] | pIC50 [4] |
| --- | --- | --- | --- | --- |
| CCCOC[C@H]1C(=O)N[C@@H]([C@@H](C)CC)C(=O)N(C)CC(=O)N(C)[C@H]2C/C=C\CCN(C2=O)[C@@H](Cc2ccc(C(F)(F)F)cc2)C(=O)N(C)CC(=O)N[C@@H](CCc2cc(F)c(C(F)(F)F)c(F)c2)C(=O)N2C[C@H](OCC)C[C@H]2C(=O)NC2(CC(C)(C)C2)C(=O)N(C)[C@@H](C2CCCC2)C(=O)N(C)[C@H](C(=O)N(C)C)CC(=O)N1C [PP1398, (2S,8S,12R,14S,20S,23S,27S,30S,36S,38Z)-20-cyclopentyl-8-[2-[3,5-difluoro-4-(trifluoromethyl)phenyl]ethyl]-12-ethoxy-N,N,3′,3′,4,19,22,26,32,35-decamethyl-30-[(1S)-1-methylpropyl]-3,6,9,15,18,21,25,28,31,34,42-undecaoxo-27-(propoxymethyl)-2-[[4-(trifluoromethyl)phenyl]methyl]spiro[1,4,7,10,16,19,22,26,29,32,35-undecazatricyclo[34.5.1.0^10,14]dotetracont-38-ene-17,1′-cyclobutane]-23-carboxamide] | 10.49 | A (a compound having 10 or more and less than 20 is denoted as A) | A (a compound having 10 or more and less than 20 is denoted as A) | 8.64 |
| CCCOC[C@H]1C(=O)N[C@@H]([C@@H](C)CC)C(=O)N(C)CC(=O)N(C)[C@H]2C/C=C\CCN(C2=O)[C@@H](Cc2ccc(C(F)(F)F)cc2)C(=O)N(C)CC(=O)N[C@@H](CCc2cc(F)c(C(F)(F)F)c(F)c2)C(=O)N2C[C@H](OCC)C[C@H]2C(=O)NC2(CCCC2)C(=O)N(C)[C@@H](C2CCCC2)C(=O)N(C)[C@H](C(=O)N2CCCC2)CC(=O)N1C [PP1399] | 9.72 | A (a compound having 10 or more and less than 20 is denoted as A) | A (a compound having 10 or more and less than 20 is denoted as A) | 7.73 |
| CCCOC[C@H]1C(=O)N[C@@H]([C@@H](C)CC)C(=O)N(C)CC(=O)N(C)[C@H]2C/C=C\CCN(C2=O)[C@@H](Cc2ccc(C)cc2)C(=O)N(C)CC(=O)N[C@@H](CCc2cc(F)c(C(F)(F)F)c(F)c2)C(=O)N2C[C@H](OCC)C[C@H]2C(=O)NC2(CC(C)(C)C2)C(=O)N(C)[C@@H](C2CCCC2)C(=O)N(C)[C@H](C(=O)N(C)C)CC(=O)N1C [PP1400, (2S,8S,12R,14S,20S,23S,27S,30S,36S,38Z)-20-cyclopentyl-8-[2-[3,5-difluoro-4-(trifluoromethyl)phenyl]ethyl]-12-ethoxy-N,N,3′,3′,4,19,22,26,32,35-decamethyl-30-[(1S)-1-methylpropyl]-3,6,9,15,18,21,25,28,31,34,42-undecaoxo-27-(propoxymethyl)-2-(p-tolylmethyl)spiro[1,4,7,10,16,19,22,26,29,32,35-undecazatricyclo[34.5.1.0^10,14]dotetracont-38-ene-17,1′-cyclobutane]-23-carboxamide] | 10.31 | A (a compound having 10 or more and less than 20 is denoted as A) | B (a compound having 3 or more and less than 10 is denoted as B) | 8.29 |
| CC[C@H](C)[C@@H]1NC(=O)[C@H](CC2CC2)N(C)C(=O)C[C@@H](C(=O)N(C)C)N(C)C(=O)[C@H](C2CCCC2)N(C)C(=O)C2(CCC2)NC(=O)[C@H](CCC(F)F)N(C)C(=O)[C@H](CCc2cc(F)c(C(F)(F)F)c(F)c2)NC(=O)CN(C)C(=O)[C@H](Cc2ccc(C(F)(F)F)cc2)N2CC/C=C\C[C@@H](C2=O)N(C)C(=O)CN(C)C1=O [PP1402] | 9.52 | A (a compound having 10 or more and less than 20 is denoted as A) | A (a compound having 10 or more and less than 20 is denoted as A) | 7.09 |
| CC[C@H](C)[C@@H]1NC(=O)[C@H](CC2CC2)N(C)C(=O)C[C@@H](C(=O)N(C)C)N(C)C(=O)[C@H](C2CCCC2)N(C)C(=O)C2(CCC2)NC(=O)[C@H](CC(F)F)N(C)C(=O)[C@H](CCc2cc(F)c(C(F)(F)F)c(F)c2)NC(=O)CN(C)C(=O)[C@H](Cc2ccc(C(F)(F)F)cc2)N2CC/C=C\C[C@@H](C2=O)N(C)C(=O)CN(C)C1=O [PP1403] | 9.22 | AA (a compound having 20 or more is denoted as AA) | A (a compound having 10 or more and less than 20 is denoted as A) | 6.96 |
| CC[C@H](C)[C@@H]1NC(=O)[C@H](CC2CC2)N(C)C(=O)C[C@@H](C)N(C)C(=O)[C@H](C2CCCC2)N(C)C(=O)C2(CCC2)NC(=O)[C@H](CCC(F)F)N(C)C(=O)[C@H](CCc2cc(F)c(C(F)(F)F)c(F)c2)NC(=O)CN(C)C(=O)[C@H](Cc2ccc(C(F)(F)F)cc2)N2CC/C=C\C[C@@H](C2=O)N(C)C(=O)CN(C)C1=O [PP1404] | 8.32 | A (a compound having 10 or more and less than 20 is denoted as A) | A (a compound having 10 or more and less than 20 is denoted as A) | 6.30 |
| CC[C@H](C)[C@@H]1NC(=O)[C@H](CC2CC2)N(C)C(=O)C[C@@H](C)N(C)C(=O)[C@H](C2CCCC2)N(C)C(=O)C2(CCC2)NC(=O)[C@H](CC(F)F)N(C)C(=O)[C@H](CCc2cc(F)c(C(F)(F)F)c(F)c2)NC(=O)CN(C)C(=O)[C@H](Cc2ccc(C(F)(F)F)cc2)N2CC/C=C\C[C@@H](C2=O)N(C)C(=O)CN(C)C1=O [PP1405] | 8.07 | A (a compound having 10 or more and less than 20 is denoted as A) | A (a compound having 10 or more and less than 20 is denoted as A) | 6.33 |
| CCO[C@@H]1C[C@H]2C(=O)NC3(CCC3)C(=O)N(C)[C@@H](C3CCCC3)C(=O)N(C)[C@H](C(=O)N(C)C)CC(=O)N(C)[C@@H](CC3CC3)C(=O)N[C@@H]([C@@H](C)CC)C(=O)NCC(=O)N(C)[C@H]3C/C=C\CCN(C3=O)[C@@H](Cc3ccc(C(F)(F)F)cc3)C(=O)N(C)CC(=O)N[C@@H](CCc3cc(F)c(C(F)(F)F)c(F)c3)C(=O)N2C1 [PP1406, (2S,8S,12R,14S,20S,23S,27S,30S,36S,38Z)-20-cyclopentyl-27-(cyclopropylmethyl)-8-[2-[3,5-difluoro-4-(trifluoromethyl)phenyl]ethyl]-12-ethoxy-N,N,4,19,22,26,35-heptamethyl-30-[(1S)-1-methylpropyl]-3,6,9,15,18,21,25,28,31,34,42-undecaoxo-2-[[4-(trifluoromethyl)phenyl]methyl]spiro[1,4,7,10,16,19,22,26,29,32,35-undecazatricyclo[34.5.1.0^10,14]dotetracont-38-ene-17,1′-cyclobutane]-23-carboxamide] | 10.14 | A (a compound having 10 or more and less than 20 is denoted as A) | B (a compound having 3 or more and less than 10 is denoted as B) | 7.96 |
